Results reported in patent US20260217727A1, “COMPOUNDS DERIVED FROM DIHYDROPIRIDINES, PHARMACEUTICAL COMPOSITIONS COMPRISING SAID COMPOUNDS AND METHOD OF TREATMENT OF MUSCLE DISORDERS COMPRISING ADMINISTRATION OF SAID COMPOSITIONS” (UNIVERSIDAD DE CHILE, priority 2023, published 2026).
“Also recorded” adds a separate entry of the source.

Assays:
fdb muscle fibers [1] = details: earlier results of the inventors; cited from earlier work
[2] = biological target: T1, Cav1.1 channels (dihydropyridine receptors) (Mus musculus, UniProt Q02789); details: earlier results, stated in words; cited from earlier work
T1 construct: endogenous in cells; host or cells: single skeletal muscle fibers isolated from C57 mouse flexor digitorum brevis (FDB) muscle
T1 sequence (Q02789 whole entry): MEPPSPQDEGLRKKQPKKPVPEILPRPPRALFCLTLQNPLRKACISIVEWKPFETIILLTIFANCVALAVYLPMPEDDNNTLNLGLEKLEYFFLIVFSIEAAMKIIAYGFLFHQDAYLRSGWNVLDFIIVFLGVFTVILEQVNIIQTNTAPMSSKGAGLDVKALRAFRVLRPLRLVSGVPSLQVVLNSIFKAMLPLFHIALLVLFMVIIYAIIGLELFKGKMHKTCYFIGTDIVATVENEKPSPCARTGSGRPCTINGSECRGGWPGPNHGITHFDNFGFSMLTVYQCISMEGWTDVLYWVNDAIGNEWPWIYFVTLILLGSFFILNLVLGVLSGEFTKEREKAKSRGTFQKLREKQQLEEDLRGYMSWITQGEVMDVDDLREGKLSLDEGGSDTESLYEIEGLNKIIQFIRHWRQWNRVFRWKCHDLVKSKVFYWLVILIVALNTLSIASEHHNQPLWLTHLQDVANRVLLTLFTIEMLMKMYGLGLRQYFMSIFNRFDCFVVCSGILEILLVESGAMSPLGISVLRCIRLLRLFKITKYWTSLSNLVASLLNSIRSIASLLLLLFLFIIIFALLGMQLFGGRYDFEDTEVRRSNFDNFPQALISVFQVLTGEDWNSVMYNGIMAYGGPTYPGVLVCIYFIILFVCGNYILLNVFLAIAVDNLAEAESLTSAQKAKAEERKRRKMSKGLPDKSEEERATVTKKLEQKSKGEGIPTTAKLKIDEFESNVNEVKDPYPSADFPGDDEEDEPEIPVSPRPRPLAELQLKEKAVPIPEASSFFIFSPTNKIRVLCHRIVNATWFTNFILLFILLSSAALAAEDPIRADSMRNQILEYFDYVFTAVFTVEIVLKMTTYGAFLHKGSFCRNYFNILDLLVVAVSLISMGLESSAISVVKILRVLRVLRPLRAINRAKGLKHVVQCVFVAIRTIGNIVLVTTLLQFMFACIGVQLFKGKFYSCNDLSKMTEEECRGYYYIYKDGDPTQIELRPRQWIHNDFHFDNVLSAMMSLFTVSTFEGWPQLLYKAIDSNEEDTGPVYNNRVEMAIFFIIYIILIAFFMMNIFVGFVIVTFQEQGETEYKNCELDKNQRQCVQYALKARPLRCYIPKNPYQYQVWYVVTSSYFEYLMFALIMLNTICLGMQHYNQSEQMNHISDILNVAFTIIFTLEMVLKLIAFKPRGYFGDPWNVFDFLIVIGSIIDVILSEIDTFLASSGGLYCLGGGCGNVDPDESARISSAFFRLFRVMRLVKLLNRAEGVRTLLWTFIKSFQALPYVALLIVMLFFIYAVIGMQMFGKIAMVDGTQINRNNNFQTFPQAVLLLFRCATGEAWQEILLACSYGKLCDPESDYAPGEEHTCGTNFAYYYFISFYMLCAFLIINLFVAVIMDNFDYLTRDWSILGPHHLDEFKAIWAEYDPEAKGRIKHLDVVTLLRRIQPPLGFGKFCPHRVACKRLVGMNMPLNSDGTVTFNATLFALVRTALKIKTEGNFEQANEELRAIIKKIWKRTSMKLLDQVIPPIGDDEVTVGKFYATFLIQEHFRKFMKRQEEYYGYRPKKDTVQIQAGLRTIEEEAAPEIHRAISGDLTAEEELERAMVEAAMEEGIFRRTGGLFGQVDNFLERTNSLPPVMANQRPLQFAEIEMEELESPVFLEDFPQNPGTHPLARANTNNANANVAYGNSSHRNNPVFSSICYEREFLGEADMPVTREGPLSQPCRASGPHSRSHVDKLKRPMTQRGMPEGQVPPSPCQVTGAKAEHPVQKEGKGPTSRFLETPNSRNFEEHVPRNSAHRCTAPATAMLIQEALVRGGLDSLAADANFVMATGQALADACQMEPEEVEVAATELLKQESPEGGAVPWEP
T1 sequence (Q8R3Z5 whole entry partner): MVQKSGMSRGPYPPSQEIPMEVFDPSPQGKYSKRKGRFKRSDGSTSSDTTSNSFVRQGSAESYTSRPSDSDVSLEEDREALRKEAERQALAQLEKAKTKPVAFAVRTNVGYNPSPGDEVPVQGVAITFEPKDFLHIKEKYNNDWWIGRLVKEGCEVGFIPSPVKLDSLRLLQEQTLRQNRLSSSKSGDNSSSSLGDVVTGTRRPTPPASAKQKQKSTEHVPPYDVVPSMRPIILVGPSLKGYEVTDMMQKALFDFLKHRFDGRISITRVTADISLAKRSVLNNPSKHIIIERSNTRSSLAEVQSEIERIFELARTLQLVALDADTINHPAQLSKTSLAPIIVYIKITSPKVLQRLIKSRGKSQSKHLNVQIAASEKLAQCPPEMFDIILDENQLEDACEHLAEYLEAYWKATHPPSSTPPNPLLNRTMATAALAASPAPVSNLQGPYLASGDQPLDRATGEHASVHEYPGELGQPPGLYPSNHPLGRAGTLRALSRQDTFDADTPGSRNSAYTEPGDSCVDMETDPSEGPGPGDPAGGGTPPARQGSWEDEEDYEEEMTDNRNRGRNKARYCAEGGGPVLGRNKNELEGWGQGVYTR
T1 sequence (O08532 25-1103 partner): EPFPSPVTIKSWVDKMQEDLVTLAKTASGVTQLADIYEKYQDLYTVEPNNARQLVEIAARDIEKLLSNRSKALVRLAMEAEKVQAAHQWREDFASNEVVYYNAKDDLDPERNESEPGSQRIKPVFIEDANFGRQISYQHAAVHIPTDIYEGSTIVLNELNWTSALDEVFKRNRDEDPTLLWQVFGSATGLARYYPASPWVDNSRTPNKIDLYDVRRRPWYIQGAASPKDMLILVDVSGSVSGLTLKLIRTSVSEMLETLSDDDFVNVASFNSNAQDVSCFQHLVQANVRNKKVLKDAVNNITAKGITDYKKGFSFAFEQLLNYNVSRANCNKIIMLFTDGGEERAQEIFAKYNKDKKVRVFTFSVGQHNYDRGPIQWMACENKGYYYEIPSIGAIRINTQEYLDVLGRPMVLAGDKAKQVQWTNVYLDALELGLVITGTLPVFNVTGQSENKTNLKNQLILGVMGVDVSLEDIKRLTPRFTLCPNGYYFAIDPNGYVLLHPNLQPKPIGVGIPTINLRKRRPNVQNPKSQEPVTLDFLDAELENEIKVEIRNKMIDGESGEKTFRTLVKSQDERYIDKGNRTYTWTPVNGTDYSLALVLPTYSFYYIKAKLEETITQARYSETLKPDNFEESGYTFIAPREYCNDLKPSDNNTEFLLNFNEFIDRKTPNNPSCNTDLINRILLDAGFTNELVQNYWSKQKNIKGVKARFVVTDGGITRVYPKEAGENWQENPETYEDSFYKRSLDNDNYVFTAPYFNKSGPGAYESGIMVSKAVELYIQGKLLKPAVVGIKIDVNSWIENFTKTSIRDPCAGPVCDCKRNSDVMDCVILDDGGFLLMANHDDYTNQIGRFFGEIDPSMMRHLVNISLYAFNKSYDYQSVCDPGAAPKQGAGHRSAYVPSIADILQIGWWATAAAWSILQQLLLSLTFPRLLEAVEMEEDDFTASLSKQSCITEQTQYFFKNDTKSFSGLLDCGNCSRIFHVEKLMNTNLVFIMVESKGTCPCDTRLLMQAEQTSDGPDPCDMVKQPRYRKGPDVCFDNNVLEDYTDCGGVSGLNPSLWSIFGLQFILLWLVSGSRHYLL
T1 sequence (O70578 whole entry partner): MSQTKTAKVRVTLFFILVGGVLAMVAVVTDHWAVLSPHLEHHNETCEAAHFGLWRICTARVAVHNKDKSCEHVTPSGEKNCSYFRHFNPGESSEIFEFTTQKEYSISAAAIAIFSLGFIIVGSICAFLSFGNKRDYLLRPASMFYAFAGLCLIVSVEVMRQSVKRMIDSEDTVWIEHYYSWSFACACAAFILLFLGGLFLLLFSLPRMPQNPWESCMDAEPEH

[3] = tested on: muscle fibers of normal mice; assay: qPCR of proinflammatory genes in muscle fibers exposed to extracellular ATP; assay type: cell-based, mouse; details: 300 μM extracellular ATP for 2 h
Protocol: Total RNA from the isolated muscle fiber culture was extracted using TRIzol (Invitrogen) according to the manufacturer's protocol. The cDNA was obtained by reverse transcription from 1 μg of total RNA, using the enzyme SuperScript II (Invitrogen) according to the manufacturer's protocol. Real-time qPCR assays were performed using a thermocycler (Stratagene Mx300P, Agilent) according to the following protocol. The reaction mix will be given by 1 μL 10×dNTPs, 0.5 μL sense primer (10 pmol/μL), 0.5 μL antisense primer (10 pmol/μL), 4 μL EVA Green (Invitrogen) and 1 μL cDNA. The final volume of the mix was brought to 20 μL by adding nuclease-free water. All primers have an optimal amplification efficiency (between 90-110%). In any case, the analysis of the data was carried out considering a correction of the amplification cycle of each gene according to the amplification efficiency of the primers. The thermocycling conditions were the following: 1 cycle of 12 min at 95° C., followed by 40 cycles of 15 at 95° C. […] The Ct value was determined by the MXPro software when the fluorescence level is 25% higher than the basal fluorescence. […]
Increases in proinflammatory markers have been reported in the muscles of older adults, as part of the process of losing muscle mass. Therefore, the effect of chronic exposure to high levels of extracellular ATP on mRNA levels of proinflammatory genes was evaluated. […]

aged mice [4] = assay: Incremental strength test (weightlifting) in aged mice; assay type: in vivo, mouse
Protocol: The muscle function of aged mice (between 19 and 21 months of age) was assessed with an incremental strength test (weightlifting) and with an incremental treadmill running test. The measurement was made after 12 days of treatment with MP-2 (1 mg/Kg/day) administered via intraperitoneal injection. As a control, vehicle-injected mice were used in the same manner as drug-injected mice. Recovery of muscle function can be observed after treatment. Data were analyzed as the change in test performance at the end of treatment relative to performance at the start of treatment for each mouse. It is observed that the treatment improves the strength parameters more than 4 times with respect to the control. […] The mean±SEM is plotted. N=5 for each group, *: p<0.05
Two functional tests were performed in control (saline-injected) and MP-2-treated (daily intraperitoneal injections of 1 mg/Kg MP-2 for 12 days) mice.

[5] = biological target: T1, Cav1.1 channels (dihydropyridine receptors); assay: Whole cell voltage-clamp measurement of L-type Ca2+ currents in isolated fdb muscle fibers; assay type: cell-based; details: L-type calcium peak current, mouse skeletal muscle fibers, control = maximum current without drug, read-out: % inhibition of Ca^2+ current
aged mice [6] = assay: Incremental treadmill running test (endurance) in aged mice; assay type: in vivo, mouse
Protocol: The standardization of this test that evaluates resistance and strength was carried out in the treadmill equipment for rodents. The test consists of 5 sessions where the animals were acclimatized for 5 minutes at the equipment's minimum speed of 0.3 Km/h and the number of shots of compressed air that keep the animal trotting is counted. Once the acclimatization process was finished, the animals were evaluated in an incremental test consisting of 2-minute ramps at the minimum speed and then gradually increasing 0.1 Km/h after 2 minutes until the animal could no longer run. This maximum effort test is only performed once per session and is considered finished when the animal reaches the bottom of the ramp and accumulates 10 shots of compressed air in a period of 10 seconds.
The muscle function of aged mice (between 19 and 21 months of age) was assessed with an incremental strength test (weightlifting) and with an incremental treadmill running test. The measurement was made after 12 days of treatment with MP-2 (1 mg/Kg/day) administered via intraperitoneal injection. As a control, vehicle-injected mice were used in the same manner as drug-injected mice. Recovery of muscle function can be observed after treatment. Data were analyzed as the change in test performance at the end of treatment relative to performance at the start of treatment for each mouse. […]

fdb muscle fibers [7] = assay: ATP release from fdb muscle fibers after 20 Hz electrical stimulation (luciferin/luciferase); assay type: cell-based, mouse; details: pre-incubation 10 μM for 30 min
Protocol: Isolation of skeletal muscle fibers was performed from C57BL/J6 mice between 8 and 10 weeks of age. Isolated fibers were obtained from the flexor digitorum brevis (FoB) and Gastrocnemius muscle by enzymatic digestion for 90 min with 400 U/mL type II collagenase (Worthington Biochemicals Corp., Lakewood, NJ, USA) and mechanical dissociation with Pasteur pipettes, as previously described (Casas et.al, 2010). The isolated fibers were seeded in Petri dishes coated with a layer of Matrigel in Dulbecco's modified Eagle's culture medium (DMEM), supplemented with 10% horse serum, 50 U/mL penicillin and […] streptomycin. Cell cultures were used approximately 20 h after the fiber seeding process. All protocols were previously approved by the Bioethics Committee of the Faculty of Medicine of the University of Chile. […]
Extracellular ATP concentrations were determined using the CellTiter-Glo® Luminescent Cell Viability Assay Kit (Promega). […] After incubating for 10 min in the dark at room temperature, the samples were quantified in an FB12 (Berthold) luminometer. […] RNA normalization was preferred over total protein normalization since adult fiber cultures were seeded on a matrigel sheet, which has a large amount of protein and could alter the quantification process. […]

[8] = aged mice 19-21 months, 1 mg/Kg/day i.p. for 12 days, change end vs start of treatment

COC(=O)C1=C(C)NC(C)=C([N+](=O)[O-])[C@H]1c1ccccc1C(F)(F)F [(S)-(−)-BayK-8644]
ATP outflow after electrical stimulation of the muscle fiber (earlier work) (fdb muscle fibers [1]): also inhibits ATP release
effect on Ca^2+ current through the DHPR channel (earlier work) [2]: increases Ca^2+ current

Nc1ncnc2c1ncn2[C@@H]1O[C@H](COP(=O)(O)OP(=O)(O)OP(=O)(O)O)[C@@H](O)[C@H]1O [ATP]
mRNA levels of proinflammatory genes (TNF-α and IL-6) [3]: increase

COC(=O)C1=C(C)NC2=C(C(=O)OC2)C1c1ccccc1[N+](=O)[O-] (stereo not drawn) [MP-2, methyl 2-methyl-4-(2-nitrophenyl)-5-oxo-1,4,5,7-tetrahydrofuro [3,4-b]pyridine-3-carboxylate]
improvement of strength parameters with respect to the control (aged mice [4]; [8]): more than 4 times
muscle strength in aged mice (aged mice [4]; aged mice (age>18 months)): substantially improves their muscle strength
improvement in weight test (measure of strength) (aged mice [4]; daily i.p. 1 mg/Kg for 12 days): 64.4%
inhibition at 10 µM [5]: 50 ± 8%
increase in Endurance test (incremental treadmill test) over the control (aged mice [6]; [8]): ~5 times
improvement in treadmill test (measure of resistance) (aged mice [6]; daily i.p. 1 mg/Kg for 12 days): 25%
inhibition of ATP outflow induced by 20 Hz electrical stimulation (fdb muscle fibers [7]): inhibits the outflow of ATP; also recorded: indistinguishable from that of nifedipine
inhibition of ATP outflow induced by 20 Hz electrical stimulation (fdb muscle fibers [7]; listed as MP2): inhibits in a similar way as nifedipine

COC(=O)C1=C(C)NC(C)=C(C(=O)OCCN(C)Cc2ccccc2)C1c1cccc([N+](=O)[O-])c1 (stereo not drawn) [Nicardipine]
inhibition at 10 µM [5]: 32.6 ± 8%

COCCOC(=O)C1=C(C)NC(C)=C(C(=O)OC(C)C)C1c1cccc([N+](=O)[O-])c1 (stereo not drawn) [Nimodipine]
inhibition at 10 µM [5]: 48 ± 10%

COC(=O)C1=C(C)NC(C)=C(C(=O)OCC(C)C)C1c1ccccc1[N+](=O)[O-] (stereo not drawn) [Nisoldipine]
inhibition at 10 µM [5]: 14.3 ± 7%

CCOC(=O)C1=C(C)NC(C)=C(C(=O)OC)C1c1cccc([N+](=O)[O-])c1 (stereo not drawn) [Nitrendipine]
inhibition at 10 µM [5]: 47.6 ± 2%
